According to PMC10989506, “Cell penetration of oxadiazole-containing macrocycles” (RSC Chemical Biology, 2024):
Values joined by “and” are separate entries in the source; they are usually repeats but may differ in a detail not shown here. Equal entries are not always repeated. *1 amine or outer side, *2 acyl side, *3 side chain or, on linkers, in order; H or OH if unused. Where a SMILES comes first, the peptide text is derived from it. Side-chain parts run from the residue outwards. The star is where a group is joined. NH(CH2CH2O)2(CH2)6Cl = ClCCCCCCOCCOCCN*; Suc = O=C(CCC(=O)[*:2])[*:1]

Assays:
[1] = PAMPA; for −log Pe: pH 7.4
Method: (§1) 5 Parallel Artificial Membrane Permeability Assay (PAMPA)
(§2) PAMPA analysis was conducted following a procedure reported by Lokey and coworkers. 9 Each measurement was conducted at room temperature in an insulated polystyrene box to maintain a constant internal temperature. Measurements were taken in triplicate, and the reported permeability values are the average value over the three runs. Carbamaz epine was included in the stock solution of each cyclic peptide to verify the integrity of the membrane as an internal standard.
(§3) Preparation of stock solution for donor well: Stock solutions were prepared by dissolving the […]
cyclic peptide (0.5 mM) and carbamazepine (0.5 mM) (as an internal standard) in DMSO at a gross […]
concentration of 1 mM. 10 μL of this stock solution was added to 990 μL PBS buffer (pH 7.4) to […]
give a 1 mL solution (10 μM, 1% DMSO v/v) for addition to the donor plate wells.
Preparation of acceptor plate: A stock solution of 5% DMSO in PBS buffer was prepared, and […]
300μL of this solution was added to each of the acceptor wells (96-well Teflon acceptor plate […]
Preparation of donor plate: 100 mg of lethicin (90%, soybean) was suspended in n -dodecane (10 […]
mL) and sonicated to give a homogenous, clear solution. 5 μL of this solution was carefully applied […]
to the membrane in the 96-well donor plate (with 0.45 μm hydrophobic Immobilon-P membrane […]
supports (Millipore MAIPNTR10)) (with care, without touching the membrane). Shortly after (~5 - […]
15 min), 150 μL of the 10 μM stock solution of cyclic peptide and carbamazepine (prepared as […]
above) were added to the donor well. The donor plate was placed on top of the acceptor wells and […]

[2] = system: HeLa cells stably expressing the HaloTag-GFP-Mito construct; assay: Chloroalkane Penetration Assay (CAPA); format: cell-based
Source text: Cell-based assays such as the Caco-2 assay and Madin–Darby canine kidney cell line (MDCK) permeability assay have been employed to offer a fuller assessment of transport in vitro.[22,23] The chloroalkane penetration assay (CAPA) is a relatively recent methodology for measuring cell penetration in live cells (Fig. 1d).[24] This assay uses cells that express a modified haloalkane dehalogenase known as HaloTag that reacts rapidly, selectively, and irreversibly with small chloroalkane ligands.[25,26] CAPA measures cytosolic penetration by pulsing cells with a chloroalkane-tagged compound (ct-compound), then chasing with a chloroaklane-tagged dye (ct-dye). If the ct-compound penetrates the cell and escapes from endosomes, it reacts with HaloTag and blocks the reaction with the ct-dye in the subsequent chase step. Thus, in CAPA, cell penetration of the ct-molecule is inversely proportional to the signal from the ct-dye retained in the cells. The dose dependence of this signal can be fit to a sigmoidal curve, whose midpoint value (called the CP50) can be compared among ct-compounds as a quantitative comparison of cell penetration.[27,28] CAPA is a cost-effective and high-throughput method for measuring the cell penetration of cyclic peptides and other molecules, and it establishes penetration to the cytosol without interference from material trapped in endosomes. In this work, we use CAPA to investigate the cell penetration of Odz macrocycles.
3 Chloroalkane Penetration Assay (CAPA)
Media was aspirated and cells were
washed with serum-free media.
Lysate stability assays were performed essentially as described. 8 For lysate stability assays, HeLa

[3] = in vitro
Method: (1 picture or pasted object on this page, not shown here) […]
were taken at each time point and quenched in 160 μL of ice-cold methanol. Samples were spun down for 10 min at 21,000 g prior to analysis by reverse phase analytical HPLC on a C18 column.
Chromatogram peaks were integrated to measure amount of peptide remaining at each time point.
Peak volumes for each timepoint were normalized to the zero-hour timepoint to determine percentage of peptide remaining. Data presented are the average of three biological replicates performed with different lysates on different days.
as §1, §2, §3

[4] = Relative hydrophobicity by reverse-phase HPLC retention time; format: physicochemical; conditions: C18 LC-MS, gradient 95%/5% MeCN to 100% MeCN over 15 min; measure of relative lipophilicity
Source text: To provide additional evidence for this hypothesis, we used the retention time on reverse phase HPLC as a measure of the overall relative lipophilicity. […] Overall, the more lipophilic cyclic peptides had more efficient cell penetration than the more hydrophilic ones.

Structure (SMILES)	−log Pe [1]	other results
CC[C@H]1C2=NN=C(O2)[C@H](Cc2ccccc2)NC(=O)CNC(=O)[C@H](CCCCNC(=O)CCC(=O)NCCOCCOCCCCCCCl)NC(=O)CNC(=O)[C@@H]2CCCN21 [Compound 2]	7.92 ± 0.07	
CC[C@H]1C2=NN=C(O2)[C@H](Cc2ccccc2)NC(=O)CNC(=O)[C@H](CC(C)C)NC(=O)[C@H](CCCCNC(=O)CCC(=O)NCCOCCOCCCCCCCl)NC(=O)[C@@H]2CCCN21 [Compound 3]	7.84 ± 0.04	
CC[C@@H]1N[C@@H](CCCCNC(=O)CCC(=O)NCCOCCOCCCCCCCl)C(=O)NCC(=O)N[C@@H](CC(C)C)C(=O)NCC(=O)N[C@@H](Cc2ccccc2)C2=NN=C1O2 [Compound 4]	7.85 ± 0.052	
CC[C@H]1C2=NN=C(O2)[C@H](CCCCNC(=O)CCC(=O)NCCOCCOCCCCCCCl)NC(=O)CNC(=O)[C@H](CC(C)C)NC(=O)CNC(=O)[C@@H]2CCCN21 [Compound 5]	>8	
CC[C@H]1C2=NN=C(O2)[C@H](Cc2ccccc2)NC(=O)[C@H](CCCCNC(=O)CCC(=O)NCCOCCOCCCCCCCl)NC(=O)[C@H](CC(C)C)NC(=O)[C@H](CC(=O)O)NC(=O)[C@@H]2CCCN21 [Compound 6]	>8	
CC[C@H]1C2=NN=C(O2)[C@H](Cc2ccccc2)NC(=O)[C@H](CCCCNC(=O)CCC(=O)NCCOCCOCCCCCCCl)NC(=O)[C@H](CC(=O)O)NC(=O)[C@H](CC(=O)O)NC(=O)[C@@H]2CCCN21 [Compound 7]	>8	
CC(C)C[C@@H]1NC(=O)CNC(=O)[C@@H]2CCCN2C(=O)[C@H](C)NC(=O)[C@H](Cc2ccccc2)NC(=O)[C@H](CCCCNC(=O)CCC(=O)NCCOCCOCCCCCCCl)NC1=O [Compound 8] (cyclo(PGLK([Suc-NH(CH2CH2O)2(CH2)6Cl])FA))	>8	cell penetration, fold worse than compound 1 ([2]; CAPA CP50 compared with compound 1): more than 20 fold; CP50 after 30 min incubation ([2]; ct-peptides incubated with cells in Opti-MEM for 30 min prior to chasing with ct-dye): 1.0 µM and 1.0 ± 0.03 µM; CP50 after 4 h incubation ([2]; ct-peptides incubated with cells in Opti-MEM for 4 h prior to chasing with ct-dye): 0.22 µM and 0.22 ± 0.02 µM; intact compound remaining in HeLa lysate ([3]; 4 h): almost no intact macrocycle; remaining at 1 h, 150 μM ([3]; human, cells or culture medium, pH 8): ~50%; T ret [4]: 7.95 min
NC(=O)N1c2ccccc2C=Cc2ccccc21 [carbamazepine, reference compound]		-Log Papp [1]: 5.7–5.8
